Data reported in ChEMBL document CHEMBL5728835, “3-(5-amino-1-oxoisoindolin-2-yl)piperidine-2,6-dione derivatives and uses thereof” (2021).

Target: Eukaryotic peptide chain release factor GTP-binding subunit ERF3A (Homo sapiens, UniProt P15170)
Sequence (P15170 whole entry): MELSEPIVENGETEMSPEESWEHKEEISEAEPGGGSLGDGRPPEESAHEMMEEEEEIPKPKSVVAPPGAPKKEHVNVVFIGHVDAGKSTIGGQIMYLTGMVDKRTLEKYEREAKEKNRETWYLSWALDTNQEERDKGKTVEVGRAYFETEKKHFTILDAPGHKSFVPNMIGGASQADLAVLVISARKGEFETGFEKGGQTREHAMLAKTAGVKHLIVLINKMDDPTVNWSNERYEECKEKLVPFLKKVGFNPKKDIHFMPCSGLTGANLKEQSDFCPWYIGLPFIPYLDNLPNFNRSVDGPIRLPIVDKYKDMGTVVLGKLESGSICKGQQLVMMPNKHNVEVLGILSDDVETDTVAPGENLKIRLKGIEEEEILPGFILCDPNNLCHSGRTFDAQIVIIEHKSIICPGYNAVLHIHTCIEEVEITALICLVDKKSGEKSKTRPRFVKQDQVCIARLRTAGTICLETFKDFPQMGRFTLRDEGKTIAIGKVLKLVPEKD

**Q.** Which EC50 does the source give for CN[C@H]1CC=CC[C@@H]1N(C)c1ccc2c(c1)CN(C1CCC(=O)NC1=O)C2=O (stereo partly specified) here?
**A.** > 50 µM
